Read-outs that look alike come from different tables or passages of the source.
What was measured:
Assay in all cases: Thermal stability shift assay
Type in all cases: binding
BMX = target: T1, BMX (Homo sapiens, UniProt P51813); settings: read-out: Tm shift BMX
T1 sequence (P51813 1-675): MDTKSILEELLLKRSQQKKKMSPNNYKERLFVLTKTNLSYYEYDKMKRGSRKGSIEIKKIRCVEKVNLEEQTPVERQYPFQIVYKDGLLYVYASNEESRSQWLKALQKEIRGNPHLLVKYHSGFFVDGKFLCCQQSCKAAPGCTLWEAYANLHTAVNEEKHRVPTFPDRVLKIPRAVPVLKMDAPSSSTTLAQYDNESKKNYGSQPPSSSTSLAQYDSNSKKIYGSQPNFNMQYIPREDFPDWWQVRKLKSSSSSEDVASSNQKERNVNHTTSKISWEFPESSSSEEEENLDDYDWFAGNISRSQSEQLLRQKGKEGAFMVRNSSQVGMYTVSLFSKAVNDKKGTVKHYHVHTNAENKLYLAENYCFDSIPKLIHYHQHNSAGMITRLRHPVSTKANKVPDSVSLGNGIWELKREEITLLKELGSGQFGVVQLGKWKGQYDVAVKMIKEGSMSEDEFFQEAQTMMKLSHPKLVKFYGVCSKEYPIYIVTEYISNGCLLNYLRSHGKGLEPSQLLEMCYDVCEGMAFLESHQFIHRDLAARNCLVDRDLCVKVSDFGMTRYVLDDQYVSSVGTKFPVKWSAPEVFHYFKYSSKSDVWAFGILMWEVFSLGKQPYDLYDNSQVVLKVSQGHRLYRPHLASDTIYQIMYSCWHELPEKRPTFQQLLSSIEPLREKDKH
Method in brief: (§1)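 2 μM protein + 10 μM inhibitor; 10 mM HEPES pH 7.5, 500 mM NaCl, SyproOrange 1:1000; melt in qPCR cycler, dye fluorescence monitored.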

TTK = target: T2, TTK (Homo sapiens, UniProt P33981); settings: read-out: Tm shift TTK
T2 sequence (P33981 1-857): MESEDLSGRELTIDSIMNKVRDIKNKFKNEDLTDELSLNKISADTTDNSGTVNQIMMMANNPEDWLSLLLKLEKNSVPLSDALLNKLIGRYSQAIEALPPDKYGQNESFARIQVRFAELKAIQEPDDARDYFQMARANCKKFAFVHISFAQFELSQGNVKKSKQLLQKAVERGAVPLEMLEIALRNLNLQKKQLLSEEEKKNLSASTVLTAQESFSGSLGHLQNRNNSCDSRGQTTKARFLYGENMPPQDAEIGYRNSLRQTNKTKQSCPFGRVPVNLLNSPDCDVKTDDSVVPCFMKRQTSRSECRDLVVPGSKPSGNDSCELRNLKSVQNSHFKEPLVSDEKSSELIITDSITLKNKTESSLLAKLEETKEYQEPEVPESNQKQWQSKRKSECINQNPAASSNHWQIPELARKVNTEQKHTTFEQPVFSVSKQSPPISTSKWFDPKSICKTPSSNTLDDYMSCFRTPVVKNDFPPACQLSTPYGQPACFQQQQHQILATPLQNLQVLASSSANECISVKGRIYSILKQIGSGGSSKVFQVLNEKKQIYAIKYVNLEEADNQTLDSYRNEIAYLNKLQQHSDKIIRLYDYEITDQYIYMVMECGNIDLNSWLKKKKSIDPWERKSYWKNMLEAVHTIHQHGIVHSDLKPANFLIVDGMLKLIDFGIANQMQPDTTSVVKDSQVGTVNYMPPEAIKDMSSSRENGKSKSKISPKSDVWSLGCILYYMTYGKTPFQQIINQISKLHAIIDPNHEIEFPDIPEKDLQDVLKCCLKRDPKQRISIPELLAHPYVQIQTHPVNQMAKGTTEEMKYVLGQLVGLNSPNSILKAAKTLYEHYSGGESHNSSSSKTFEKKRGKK
Method in brief: as §1

DCAMKL1 = target: T3, DCAMKL1 (Homo sapiens, UniProt O15075); settings: read-out: Tm shift DCAMKL1
T3 construct: purchased in-house (SGC Oxford thermal shift panel)
T3 sequence (O15075 1-740): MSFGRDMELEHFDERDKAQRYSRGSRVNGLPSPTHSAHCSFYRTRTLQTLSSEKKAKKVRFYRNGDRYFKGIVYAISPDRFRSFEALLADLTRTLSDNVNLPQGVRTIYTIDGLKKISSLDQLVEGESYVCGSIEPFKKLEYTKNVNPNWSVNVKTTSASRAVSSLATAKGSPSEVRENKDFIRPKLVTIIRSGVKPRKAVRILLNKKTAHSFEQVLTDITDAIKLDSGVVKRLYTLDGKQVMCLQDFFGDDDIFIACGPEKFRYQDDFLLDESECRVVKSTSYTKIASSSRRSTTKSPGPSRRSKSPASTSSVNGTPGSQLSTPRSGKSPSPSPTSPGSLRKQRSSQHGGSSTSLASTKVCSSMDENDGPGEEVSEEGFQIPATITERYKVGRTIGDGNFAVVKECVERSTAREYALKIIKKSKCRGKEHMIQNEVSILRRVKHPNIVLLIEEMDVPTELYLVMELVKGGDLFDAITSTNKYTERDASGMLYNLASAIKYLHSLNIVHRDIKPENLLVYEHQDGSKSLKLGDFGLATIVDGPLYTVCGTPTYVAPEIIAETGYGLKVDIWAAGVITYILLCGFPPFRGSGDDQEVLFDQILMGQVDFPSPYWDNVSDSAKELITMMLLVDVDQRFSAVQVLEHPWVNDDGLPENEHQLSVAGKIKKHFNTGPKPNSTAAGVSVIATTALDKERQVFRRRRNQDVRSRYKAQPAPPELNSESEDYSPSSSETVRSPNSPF
Method in brief: as §1

ZC2/TNIK = ZC2/TNIK (Homo sapiens, UniProt Q9UKE5); settings: read-out: Tm shift ZC2/TNIK
Sequence of ZC2/TNIK (Q9UKE5 whole entry): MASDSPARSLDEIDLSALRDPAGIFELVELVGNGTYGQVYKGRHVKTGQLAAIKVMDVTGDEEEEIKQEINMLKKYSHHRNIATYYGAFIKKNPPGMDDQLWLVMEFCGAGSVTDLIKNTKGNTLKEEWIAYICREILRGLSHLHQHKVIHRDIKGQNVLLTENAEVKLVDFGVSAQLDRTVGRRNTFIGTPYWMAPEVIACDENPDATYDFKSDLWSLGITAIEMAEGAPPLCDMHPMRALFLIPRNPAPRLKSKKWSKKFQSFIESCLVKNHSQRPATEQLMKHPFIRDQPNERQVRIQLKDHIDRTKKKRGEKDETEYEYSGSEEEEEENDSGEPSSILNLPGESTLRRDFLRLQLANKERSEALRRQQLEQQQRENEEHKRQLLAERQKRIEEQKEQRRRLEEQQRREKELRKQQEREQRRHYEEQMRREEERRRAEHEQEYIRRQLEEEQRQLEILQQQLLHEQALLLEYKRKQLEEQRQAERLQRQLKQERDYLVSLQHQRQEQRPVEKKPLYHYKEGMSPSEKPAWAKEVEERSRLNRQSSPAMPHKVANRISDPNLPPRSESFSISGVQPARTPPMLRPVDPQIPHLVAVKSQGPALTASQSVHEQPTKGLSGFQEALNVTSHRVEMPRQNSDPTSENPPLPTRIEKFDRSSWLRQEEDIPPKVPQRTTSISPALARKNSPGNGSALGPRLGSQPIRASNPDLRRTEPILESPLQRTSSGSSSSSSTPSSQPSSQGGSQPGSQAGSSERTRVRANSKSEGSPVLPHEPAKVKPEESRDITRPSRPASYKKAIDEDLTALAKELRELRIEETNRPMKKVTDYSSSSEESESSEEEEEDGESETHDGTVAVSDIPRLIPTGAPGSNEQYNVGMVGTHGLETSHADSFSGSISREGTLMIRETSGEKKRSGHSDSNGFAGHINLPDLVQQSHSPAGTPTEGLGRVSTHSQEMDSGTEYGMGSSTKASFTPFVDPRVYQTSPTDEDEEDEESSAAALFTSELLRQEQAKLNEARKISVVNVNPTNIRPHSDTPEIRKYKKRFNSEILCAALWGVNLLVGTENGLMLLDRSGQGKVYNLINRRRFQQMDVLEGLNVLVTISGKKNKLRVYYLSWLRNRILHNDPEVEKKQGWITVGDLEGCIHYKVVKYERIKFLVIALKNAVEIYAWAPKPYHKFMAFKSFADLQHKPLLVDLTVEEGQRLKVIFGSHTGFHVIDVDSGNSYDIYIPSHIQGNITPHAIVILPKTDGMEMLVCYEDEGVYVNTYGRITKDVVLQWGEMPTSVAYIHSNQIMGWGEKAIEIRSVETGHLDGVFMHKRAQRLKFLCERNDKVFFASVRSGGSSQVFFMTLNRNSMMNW
Method in brief: as §1

ACTR2 = ACTR2 (Homo sapiens, UniProt P27037); settings: read-out: Tm shift ACTR2
Sequence of ACTR2 (P27037 20-513): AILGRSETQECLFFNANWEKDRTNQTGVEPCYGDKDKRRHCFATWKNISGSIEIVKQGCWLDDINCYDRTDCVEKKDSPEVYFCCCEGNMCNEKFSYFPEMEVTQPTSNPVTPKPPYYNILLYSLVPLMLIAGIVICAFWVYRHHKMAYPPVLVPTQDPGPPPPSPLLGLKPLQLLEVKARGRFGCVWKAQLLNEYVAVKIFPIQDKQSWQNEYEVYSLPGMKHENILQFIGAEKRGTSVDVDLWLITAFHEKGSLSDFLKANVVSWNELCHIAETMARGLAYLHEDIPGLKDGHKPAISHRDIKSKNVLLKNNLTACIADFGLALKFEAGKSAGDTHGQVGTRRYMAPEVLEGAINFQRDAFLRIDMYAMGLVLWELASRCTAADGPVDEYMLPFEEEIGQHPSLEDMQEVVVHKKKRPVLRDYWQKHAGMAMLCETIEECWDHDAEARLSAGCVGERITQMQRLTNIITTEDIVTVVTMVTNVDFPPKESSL
Method in brief: as §1

MST4 = target: T4, MST4 (Homo sapiens, UniProt Q9P289); settings: read-out: Tm shift MST4
T4 construct: purchased in-house (SGC Oxford thermal shift panel)
T4 sequence (Q9P289 whole entry): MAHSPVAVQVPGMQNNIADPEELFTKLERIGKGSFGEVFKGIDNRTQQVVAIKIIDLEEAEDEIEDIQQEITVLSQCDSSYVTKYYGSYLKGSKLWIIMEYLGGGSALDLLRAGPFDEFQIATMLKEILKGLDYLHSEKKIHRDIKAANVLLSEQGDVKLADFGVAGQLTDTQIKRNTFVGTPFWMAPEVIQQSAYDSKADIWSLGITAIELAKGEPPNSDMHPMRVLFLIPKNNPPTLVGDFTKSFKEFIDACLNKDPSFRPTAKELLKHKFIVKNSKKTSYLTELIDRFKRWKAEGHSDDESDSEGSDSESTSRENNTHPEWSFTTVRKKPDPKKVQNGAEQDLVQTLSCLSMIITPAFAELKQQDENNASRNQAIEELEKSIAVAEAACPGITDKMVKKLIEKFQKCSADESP
Method in brief: as §1

OSR1 = target: T5, OSR1 (Homo sapiens, UniProt O95747); settings: read-out: Tm shift OSR1
T5 construct: purchased in-house (SGC Oxford thermal shift panel)
T5 sequence (O95747 whole entry): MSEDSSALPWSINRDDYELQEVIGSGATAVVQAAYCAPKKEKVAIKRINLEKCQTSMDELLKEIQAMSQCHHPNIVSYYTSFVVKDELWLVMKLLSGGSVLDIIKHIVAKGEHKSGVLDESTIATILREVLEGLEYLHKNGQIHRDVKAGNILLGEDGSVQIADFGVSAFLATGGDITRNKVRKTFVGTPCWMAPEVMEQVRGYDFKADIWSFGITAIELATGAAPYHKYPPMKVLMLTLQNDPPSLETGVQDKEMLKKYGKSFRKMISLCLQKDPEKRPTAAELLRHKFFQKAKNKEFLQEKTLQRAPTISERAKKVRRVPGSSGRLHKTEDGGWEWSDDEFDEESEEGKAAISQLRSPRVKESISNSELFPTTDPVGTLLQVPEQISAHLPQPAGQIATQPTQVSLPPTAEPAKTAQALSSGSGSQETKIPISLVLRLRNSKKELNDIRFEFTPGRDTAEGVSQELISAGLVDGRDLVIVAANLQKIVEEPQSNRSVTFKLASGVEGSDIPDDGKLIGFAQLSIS
Method in brief: as §1

PKACa = PKACa (Homo sapiens, UniProt P17612); settings: read-out: Tm shift PKACa
Method in brief: as §1

| ΔTm at 10 µM (BMX; inhibitor 10 μM) [°C] | ΔTm at 10 µM (TTK; inhibitor 10 μM) [°C] | ΔTm at 10 µM (DCAMKL1; inhibitor 10 μM) [°C] | ΔTm at 10 µM (ZC2/TNIK; inhibitor 10 μM) [°C] | ΔTm at 10 µM (ACTR2; inhibitor 10 μM) [°C] | ΔTm at 10 µM (MST4; inhibitor 10 μM) [°C] | ΔTm at 10 µM (OSR1; inhibitor 10 μM) [°C] | ΔTm at 10 µM (PKACa; inhibitor 10 μM) [°C] | SMILES | ΔTm at 10 µM (BMX) [°C] | ΔTm at 10 µM (TTK) [°C] | ΔTm at 10 µM (DCAMKL1) [°C] | ΔTm at 10 µM (ZC2/TNIK) [°C] | ΔTm at 10 µM (ACTR2) [°C] | ΔTm at 10 µM (MST4) [°C] | ΔTm at 10 µM (OSR1) [°C] | ΔTm at 10 µM (PKACa) [°C] |
| --- | --- | --- | --- | --- | --- | --- | --- | --- | --- | --- | --- | --- | --- | --- | --- | --- |
| – | – | – | – | – | – | – | – | CCOC(=O)c1c(C(C#N)=CN)c2ccc(Cl)c(Cl)c2n1C (mixture of isomers) [KH-CB20, (E/Z)-Ethyl 3-(2-Amino-1-Cyanovinyl)-6,7-Dichloro-1-Methyl-1H-Indole-2-Carboxylate] | 0.2 | 0.3 | -0.1 | -0.1 | 0.4 | 0.1 | 0.3 | 0.3 |
| -0.2 | -0.1 | 0.7 | 0.1 | 0.6 | -0.6 | 0 | 0.2 | CCOC(=O)c1c(C(C#N)=CN(C)C)c2ccc(Cl)c(Cl)c2n1C (mixture of isomers) [compound 2, (E/Z)-Ethyl 6,7-Dichloro-3-[1-Cyano-2-(Dimethylamino)Vinyl]-1-Methyl-1H-Indole-2-Carboxylate] | – | – | – | – | – | – | – | – |
| – | – | – | – | – | – | – | – | CCOC(=O)c1c(/C(C#N)=C\N)c2ccc(Cl)c(Cl)c2n1C [KH-CB19, (E)-Ethyl 3-(2-Amino-1-Cyanovinyl)-6,7-Dichloro-1-Methyl-1H-Indole-2-Carboxylate] | 0.2 | 0.5 | -0.2 | 0.2 | 0.2 | 2.4 | 0.3 | 0 |
| -0.1 | 1.8 | 0 | 0 | 0.8 | 0.4 | 0.3 | 0.4 | Cn1c2c(Cl)c(Cl)ccc2c2c(C#N)c[nH]c(=O)c21 [compound 3, 7,8-Dichloro-9-Methyl-1-Oxo-2,9-Dihydro-1H-Pyrido[3,4-b]Indole-4-Carbonitrile] | – | – | – | – | – | – | – | – |

| SMILES | ΔTm at 10 µM (BMX; inhibitor 10 μM) [°C] | ΔTm at 10 µM (TTK; inhibitor 10 μM) [°C] | ΔTm at 10 µM (DCAMKL1; inhibitor 10 μM) [°C] | ΔTm at 10 µM (ZC2/TNIK; inhibitor 10 μM) [°C] | ΔTm at 10 µM (ACTR2; inhibitor 10 μM) [°C] | ΔTm at 10 µM (MST4; inhibitor 10 μM) [°C] | ΔTm at 10 µM (OSR1; inhibitor 10 μM) [°C] | ΔTm at 10 µM (PKACa; inhibitor 10 μM) [°C] | ΔTm at 10 µM (BMX) [°C] | ΔTm at 10 µM (TTK) [°C] | ΔTm at 10 µM (DCAMKL1) [°C] | ΔTm at 10 µM (ZC2/TNIK) [°C] | ΔTm at 10 µM (ACTR2) [°C] | ΔTm at 10 µM (MST4) [°C] | ΔTm at 10 µM (OSR1) [°C] | ΔTm at 10 µM (PKACa) [°C] |
| --- | --- | --- | --- | --- | --- | --- | --- | --- | --- | --- | --- | --- | --- | --- | --- | --- |
| NC1=NC(=O)/C(=C2\CCNC(=O)c3[nH]c(Br)cc32)N1 [Hymenialdisine, hymenialdisine, reference compound] | -0.1 | 0.7 | 0.5 | – | 0.7 | 4.6 | 0.5 | 0.8 | – | – | – | 3.4 | – | – | – | – |

Reference: PMC3145970, “Specific CLK Inhibitors from a Novel Chemotype for Regulation of Alternative Splicing” (Chemistry & Biology, 2011)
